Legend:
Type in all cases: in vivo
[1] = system: field corn (Zea mays L., var. Dekalb 535, CORN); test: Pre-emerge greenhouse test, crop damage rating; details: 14 days after application, rating scale 0-100
Excerpt: (§1) A standard greenhouse herbicide activity screening system was used to evaluate the herbicidal efficacy and crop safety of these test compounds. Six broadleaf weed species including redroot pigweed (Amaranthus retroflexus, AMARE), velvetleaf (Abutilon theophrasti, ABUTH), sicklepod (Cassia obtusifolia, CASOB), ivyleaf morningglory (Ipomoea hederacea, IPOHE), lambsquarters (Chenopodium album, CHEAL) and common ragweed (Ambrosia artemisiifolia L., AMBEL) were used as test species. Four grass weed species including green foxtail (Setaria viridis, SETVI), barnyardgrass (Echinochloa crusgalli, ECHCG), Johnsongrass (Sorghum halepense, SORHA), and large crabgrass (Digitaria sanguinalis, DIGSA) were also used. In addition, three crop species, field corn (Zea mays L., var. Dekalb 535, CORN), soybean (Glycine max L., var. Pella 86, SOY), and upland rice (Oryza sp., var.Tebonnet, RICE) were included.
(§2) All plants were grown in 10 cm square plastic pots which were filled with a sandy loam soil mix. For preemerge tests, seeds were planted one day prior to application of the test compounds. Immediately after application, test units of the pre-emerge applications were watered at the soil surface to incorporate the test materials. Subsequently, these test units were bottom-watered.
(§3) All test compounds were dissolved in acetone and applied to the test units in a volume of 187 l/ha. Test materials were applied at rates ranging from 125 g ai/ha to 1000 g ai/ha using a track sprayer equipped with a TJ8001E even flow flat fan spray nozzle. Plants were arranged on a shelf so that the top of the canopy (post-emerge) or top of the soil surface (pre-emerge) was 40-45 cm below the nozzle. Pressurized air was used to force the test solution through the nozzle as it was mechanically advanced (via electrically driven chain drive) over the top of all test plants/pots. This application simulates a typical commercial field herbicide application.
(§4) At 14 days after application of the test materials, phytotoxicity ratings were recorded. A rating scale of 0-100 was used as previously described in Research Methods in Weed Science, 2nd edition, B. Truelove, Ed., Southern Weed Science Society, Auburn University, Auburn, Ala., 1977. Briefly, “0” corresponds to no damage and “100” corresponds to complete death of all plants in the test unit. This scale was used both to determine efficacy against weed species and damage to crop species. Herbicide activity data for various compounds of this invention, which are shown by compound number in Tables 1-9, are shown in Tables 13 and 14.

[2] = system: upland rice (Oryza sp., var.Tebonnet, RICE); test: Pre-emerge greenhouse test, crop damage rating; details: 14 days after application, rating scale 0-100
Excerpt: as §1, §2, §3, §4

[3] = system: lambsquarters (Chenopodium album, CHEAL); test: Post-emerge greenhouse herbicide test, phytotoxicity rating; details: 14 days after application
Excerpt: as §1, §3
(§5) In the post-emerge test, a commercial non-ionic surfactant was also included (0.25% v/v) to enhance wetting of the leaf surfaces Qf target plants at rates ranging from 63 g ai/ha to 1000 g ai/ha. For post-emerge tests, seeds were planted 8-21 days prior to the test to allow emergence and good foliage development prior to application of the test substances. At the time of the post-emerge application, plants of all species were usually at the 2-3 leaf stage of development. Post-emerge test units were always bottom-watered.
as §4

[4] = system: velvetleaf (Abutilon theophrasti, ABUTH); test: as above; details: 14 days after application
Excerpt: as §1, §3, §5, §4

[5] = system: sicklepod (Cassia obtusifolia, CASOB); test: as above; details: 14 days after application
Excerpt: as §1, §3, §5, §4

[6] = system: barnyardgrass (Echinochloa crusgalli, ECHCG); test: as above; details: 14 days after application
Excerpt: as §1, §3, §5, §4

[7] = system: redroot pigweed (Amaranthus retroflexus, AMARE); test: as above; details: 14 days after application
Excerpt: as §1, §3, §5, §4

[8] = system: ivyleaf morningglory (Ipomoea hederacea, IPOHE); test: as above; details: 14 days after application
Excerpt: as §1, §3, §5, §4

[9] = system: large crabgrass (Digitaria sanguinalis, DIGSA); test: as above; details: 14 days after application
Excerpt: as §1, §3, §5, §4

[10] = system: Johnsongrass (Sorghum halepense, SORHA); test: as above; details: 14 days after application
Excerpt: as §1, §3, §5, §4

[11] = system: green foxtail (Setaria viridis, SETVI); test: as above; details: 14 days after application
Excerpt: as §1, §3, §5, §4

[12] = system: soybean (Glycine max L., var. Pella 86, SOY); test: Pre-emerge greenhouse test, crop damage rating; details: 14 days after application, rating scale 0-100
Excerpt: as §1, §2, §3, §4

[13] = system: soybean (Glycine max L., var. Pella 86, SOY); test: Post-emerge greenhouse test, crop damage rating; details: 14 days after application
Excerpt: as §1, §3, §5, §4

[14] = system: lambsquarters (Chenopodium album, CHEAL); test: Pre-emerge greenhouse herbicide test, phytotoxicity rating; details: 14 days after application, rating scale 0-100
Excerpt: as §1, §2, §3, §4

[15] = system: velvetleaf (Abutilon theophrasti, ABUTH); test: as above; details: 14 days after application, rating scale 0-100
Excerpt: as §1, §2, §3, §4

[16] = system: sicklepod (Cassia obtusifolia, CASOB); test: as above; details: 14 days after application, rating scale 0-100
Excerpt: as §1, §2, §3, §4

[17] = system: barnyardgrass (Echinochloa crusgalli, ECHCG); test: as above; details: 14 days after application, rating scale 0-100
Excerpt: as §1, §2, §3, §4

[18] = system: redroot pigweed (Amaranthus retroflexus, AMARE); test: as above; details: 14 days after application, rating scale 0-100
Excerpt: as §1, §2, §3, §4

[19] = system: ivyleaf morningglory (Ipomoea hederacea, IPOHE); test: as above; details: 14 days after application, rating scale 0-100
Excerpt: as §1, §2, §3, §4

[20] = system: large crabgrass (Digitaria sanguinalis, DIGSA); test: as above; details: 14 days after application, rating scale 0-100
Excerpt: as §1, §2, §3, §4

[21] = system: Johnsongrass (Sorghum halepense, SORHA); test: as above; details: 14 days after application, rating scale 0-100
Excerpt: as §1, §2, §3, §4

[22] = system: green foxtail (Setaria viridis, SETVI); test: as above; details: 14 days after application, rating scale 0-100
Excerpt: as §1, §2, §3, §4

[23] = system: field corn (Zea mays L., var. Dekalb 535, CORN); test: Post-emerge greenhouse test, crop damage rating; details: 14 days after application
Excerpt: as §1, §3, §5, §4

[24] = system: upland rice (Oryza sp., var.Tebonnet, RICE); test: Post-emerge greenhouse test, crop damage rating; details: 14 days after application
Excerpt: as §1, §3, §5, §4

## CS(=O)(=O)Nc1ccc(Oc2cc(-n3c(=O)cc4n(c3=O)CCC4)c(F)cc2Cl)cc1 [Compound 5-5]
[1]; 500 g ai/ha
  crop damage rating CORN: 0
[2]; 500 g ai/ha
  crop damage rating RICE: 0
[3]; 500 g al/ha
  CHEAL phytotoxicity rating (0-100): 0
[4]; 500 g al/ha
  ABUTH phytotoxicity rating (0-100): 0
[5]; 500 g al/ha
  CASOB phytotoxicity rating (0-100): 0
[6]; 500 g al/ha
  ECHCG phytotoxicity rating (0-100): 0
[7]; 500 g al/ha
  AMARE phytotoxicity rating (0-100): 0
[8]; 500 g al/ha
  IPOHE phytotoxicity rating (0-100): 0
[9]; 500 g al/ha
  DIGSA phytotoxicity rating (0-100): 0
[10]; 500 g al/ha
  SORHA phytotoxicity rating (0-100): 0
[11]; 500 g al/ha
  SETVI phytotoxicity rating (0-100): 0
[12]; 500 g ai/ha
  crop damage rating SOY: 10
[13]; 500 g al/ha
  SOY crop damage rating (0-100): 0
[14]; 500 g ai/ha
  phytotoxicity rating CHEAL: 100
[15]; 500 g ai/ha
  phytotoxicity rating ABUTH: 50
[16]; 500 g ai/ha
  phytotoxicity rating CASOB: 0
[17]; 500 g ai/ha
  phytotoxicity rating ECHCG: 0
[18]; 500 g ai/ha
  phytotoxicity rating AMARE: 95
[19]; 500 g ai/ha
  phytotoxicity rating IPOHE: 0
[20]; 500 g ai/ha
  phytotoxicity rating DIGSA: 0
[21]; 500 g ai/ha
  phytotoxicity rating SORHA: 0
[22]; 500 g ai/ha
  phytotoxicity rating SETVI: 0
[23]; 500 g al/ha
  CORN crop damage rating (0-100): 0
[24]; 500 g al/ha
  RICE crop damage rating (0-100): 0

## O=c1cc2n(c(=O)n1-c1cc(Oc3ncccc3C(F)(F)F)c(Cl)cc1F)CCC2 [Compound 5-10, 2-[4-chloro-2-fluoro-5-(3-trifluoromethyl-2-pyridyloxy)phenyl]-6,7-dihydropyrrolo[1,2-c]pyrimidine-1,3(2H,5H)dione]
[3]; 1000 g al/ha
  CHEAL phytotoxicity rating (0-100): 80
[4]; 1000 g al/ha
  ABUTH phytotoxicity rating (0-100): 100
[5]; 1000 g al/ha
  CASOB phytotoxicity rating (0-100): 30
[6]; 1000 g al/ha
  ECHCG phytotoxicity rating (0-100): 80
[7]; 1000 g al/ha
  AMARE phytotoxicity rating (0-100): 80
[8]; 1000 g al/ha
  IPOHE phytotoxicity rating (0-100): 70
[9]; 1000 g al/ha
  DIGSA phytotoxicity rating (0-100): 10
[10]; 1000 g al/ha
  SORHA phytotoxicity rating (0-100): 70
[11]; 1000 g al/ha
  SETVI phytotoxicity rating (0-100): 20
[14]; 1000 g ai/ha
  phytotoxicity rating CHEAL: 100
[15]; 1000 g ai/ha
  phytotoxicity rating ABUTH: 100
[16]; 1000 g ai/ha
  phytotoxicity rating CASOB: 0
[17]; 1000 g ai/ha
  phytotoxicity rating ECHCG: 100
[18]; 1000 g ai/ha
  phytotoxicity rating AMARE: 100
[19]; 1000 g ai/ha
  phytotoxicity rating IPOHE: 100
[20]; 1000 g ai/ha
  phytotoxicity rating DIGSA: 100
[21]; 1000 g ai/ha
  phytotoxicity rating SORHA: 100
[22]; 1000 g ai/ha
  phytotoxicity rating SETVI: 100

## N#Cc1ccc(Oc2cc(-n3c(=O)cc4n(c3=O)CCC4)c(F)cc2Cl)nc1 [Compound 5-11]
[1]; 1000 g ai/ha
  crop damage rating CORN: 30
[2]; 1000 g ai/ha
  crop damage rating RICE: 80
[3]; 1000 g al/ha
  CHEAL phytotoxicity rating (0-100): 90
[4]; 1000 g al/ha
  ABUTH phytotoxicity rating (0-100): 100
[5]; 1000 g al/ha
  CASOB phytotoxicity rating (0-100): 10
[6]; 1000 g al/ha
  ECHCG phytotoxicity rating (0-100): 20
[7]; 1000 g al/ha
  AMARE phytotoxicity rating (0-100): 70
[8]; 1000 g al/ha
  IPOHE phytotoxicity rating (0-100): 90
[9]; 1000 g al/ha
  DIGSA phytotoxicity rating (0-100): 0
[10]; 1000 g al/ha
  SORHA phytotoxicity rating (0-100): 20
[11]; 1000 g al/ha
  SETVI phytotoxicity rating (0-100): 10
[12]; 1000 g ai/ha
  crop damage rating SOY: 60
[13]; 1000 g al/ha
  SOY crop damage rating (0-100): 40
[14]; 1000 g ai/ha
  phytotoxicity rating CHEAL: 100
[16]; 1000 g ai/ha
  phytotoxicity rating CASOB: 30
[17]; 1000 g ai/ha
  phytotoxicity rating ECHCG: 95
[18]; 1000 g ai/ha
  phytotoxicity rating AMARE: 80
[19]; 1000 g ai/ha
  phytotoxicity rating IPOHE: 80
[20]; 1000 g ai/ha
  phytotoxicity rating DIGSA: 90
[21]; 1000 g ai/ha
  phytotoxicity rating SORHA: 99
[22]; 1000 g ai/ha
  phytotoxicity rating SETVI: 95
[23]; 1000 g al/ha
  CORN crop damage rating (0-100): 15
[24]; 1000 g al/ha
  RICE crop damage rating (0-100): 25
